These results are taken from ChEMBL document CHEMBL5316339, “Discovery of a Series of Substituted 1H-((1,2,3-Triazol-4-yl)methoxy)pyrimidines as Brain Penetrants and Potent GluN2B-Selective Negative Allosteric Modulators” (J Med Chem, 2023).

Values after ≈ are worked out from the molar mass of the structure shown.

A word on the ED50: it is the dose that gives a 50% effect, or the effect in half of the subjects. A lower ED50 goes with an effect at a small dose. A word on the IC50: it is the concentration needed to halve the response being measured. By solubility is commonly meant the concentration that dissolves in the medium under given conditions. A higher solubility goes with a readily soluble substance. Broadly, the efflux ratio is the permeability from basolateral to apical divided by that in the opposite direction, in the common usage. Broadly, the Ki is the equilibrium dissociation constant of an inhibitor or competing ligand from its target.

The nature of series [1]: Drug metabolism in human liver microsomes assessed as O-dearylation mediated metabolite formation. It counts as ADME, Microsome.
Series [2] deals with Hippocampus. Briefly: Ex vivo receptor occupancy at GluN2B receptor in Sprague-Dawley rat hippocampus administered orally and measured after 2 hrs by 3-[3H] 1-(azetidin- 1-yl-2[6-(4-fluoro-3-methyl-pheny)pyrrolo[3,2-b]pyridin-1-yl]ethanon based autoradiography. Conditions: route po. In kind it is functional.
Series [3] concerns the target Voltage-gated inwardly rectifying potassium channel KCNH2 (Homo sapiens, UniProt Q12809). In words: Displacement of [3H]dofetilide from human ERG expressed in HEK293 cells. In kind it is toxicity, cell-based. Background: In a radioligand displacement assay an active substance lowers the binding of a labelled ligand.
The nature of series [4]: Solubility in aqueous buffer at pH 7. In kind it is physicochemical.
A short description of series [5]: Drug metabolism in human liver microsomes assessed as acid metabolite 2-((1-(3-(difluoromethoxy)-4-fluorophenyl)-1H-1,2,3-triazol-4-yl)methoxy)pyrimidine-5-carboxylic acid formation. In kind it is ADME, Microsome. In general terms: Liver microsomes are a subcellular fraction often used to study metabolism.
Series [6] relates to MDR1 (P-gp). In words: Efflux ratio of apparent permeability from basolateral to apical side over apical to basolateral side in MDCK-MDR1 cells at 5 uM incubated for 60 mins by LC-MS/MS analysis. In kind it is ADME, cell-based, Canis lupus familiaris. To be noted: dog.
Series [7] is described as follows: Metabolic stability in rat liver microsomes assessed as extraction ratio. In kind it is ADME, Microsome. To be noted: read-out: ERH.
A short description of series [8]: Drug metabolism in rat liver microsomes assessed as hydroxylated metabolite (2-((1-(3-(difluoromethoxy)-4-fluorophenyl)-1H-1,2,3-triazol-4-yl)methoxy)pyrimidin-5-yl)methanol formation. It counts as ADME, Microsome.
Series [9] can be described thus: Solubility in aqueous buffer at pH 2. In kind it is physicochemical.
The nature of series [10]: Metabolic stability in human liver microsomes assessed as extraction ratio. In kind it is ADME, Microsome. Conditions: read-out: ERH.
Series [11] is described as follows: Drug metabolism in rat liver microsomes assessed as acid metabolite 2-((1-(3-(difluoromethoxy)-4-fluorophenyl)-1H-1,2,3-triazol-4-yl)methoxy)pyrimidine-5-carboxylic acid formation. In kind it is ADME, Microsome.
Series [12] in a line: Drug metabolism in rat liver microsomes assessed as O-dearylation mediated metabolite formation. In kind it is ADME, Microsome.
Series [13] concerns the target Glutamate receptor ionotropic, NMDA 2B (Rattus norvegicus, UniProt Q00960). In words: Displacement of 3-(3H) 1-(azetidin-1-yl)-2-(6- (4-fluoro-3-methyl-phenyl)pyrrolo-[…] pyridin-1yl)ethanone from GluN2B receptor in rat cortical membrane assessed as inhibition constant incubated for 2 hrs under shaking condition by liquid scintillator counter analysis. In kind it is cell membranes, Cortex.

A short description of series [14]: Drug metabolism in human liver microsomes assessed as hydroxylated metabolite (2-((1-(3-(difluoromethoxy)-4-fluorophenyl)-1H-1,2,3-triazol-4-yl)methoxy)pyrimidin-5-yl)methanol formation. It counts as ADME, Microsome.
In series [15] the target is Glutamate NMDA receptor; GRIN1/GRIN2B (Homo sapiens, UniProt Q05586+Q13224). In words: Negative allosteric modulation of human GluN1A/GluN2B receptor expressed in T-REX-CHO cells preincubated for 5 mins followed by glutamate and glycine addition and measured after 5 mins by FLIPR assay. It counts as cell-based.
Glutamate NMDA receptor; GRIN1/GRIN2B, sequence (Q13224 whole entry, other chains not shown): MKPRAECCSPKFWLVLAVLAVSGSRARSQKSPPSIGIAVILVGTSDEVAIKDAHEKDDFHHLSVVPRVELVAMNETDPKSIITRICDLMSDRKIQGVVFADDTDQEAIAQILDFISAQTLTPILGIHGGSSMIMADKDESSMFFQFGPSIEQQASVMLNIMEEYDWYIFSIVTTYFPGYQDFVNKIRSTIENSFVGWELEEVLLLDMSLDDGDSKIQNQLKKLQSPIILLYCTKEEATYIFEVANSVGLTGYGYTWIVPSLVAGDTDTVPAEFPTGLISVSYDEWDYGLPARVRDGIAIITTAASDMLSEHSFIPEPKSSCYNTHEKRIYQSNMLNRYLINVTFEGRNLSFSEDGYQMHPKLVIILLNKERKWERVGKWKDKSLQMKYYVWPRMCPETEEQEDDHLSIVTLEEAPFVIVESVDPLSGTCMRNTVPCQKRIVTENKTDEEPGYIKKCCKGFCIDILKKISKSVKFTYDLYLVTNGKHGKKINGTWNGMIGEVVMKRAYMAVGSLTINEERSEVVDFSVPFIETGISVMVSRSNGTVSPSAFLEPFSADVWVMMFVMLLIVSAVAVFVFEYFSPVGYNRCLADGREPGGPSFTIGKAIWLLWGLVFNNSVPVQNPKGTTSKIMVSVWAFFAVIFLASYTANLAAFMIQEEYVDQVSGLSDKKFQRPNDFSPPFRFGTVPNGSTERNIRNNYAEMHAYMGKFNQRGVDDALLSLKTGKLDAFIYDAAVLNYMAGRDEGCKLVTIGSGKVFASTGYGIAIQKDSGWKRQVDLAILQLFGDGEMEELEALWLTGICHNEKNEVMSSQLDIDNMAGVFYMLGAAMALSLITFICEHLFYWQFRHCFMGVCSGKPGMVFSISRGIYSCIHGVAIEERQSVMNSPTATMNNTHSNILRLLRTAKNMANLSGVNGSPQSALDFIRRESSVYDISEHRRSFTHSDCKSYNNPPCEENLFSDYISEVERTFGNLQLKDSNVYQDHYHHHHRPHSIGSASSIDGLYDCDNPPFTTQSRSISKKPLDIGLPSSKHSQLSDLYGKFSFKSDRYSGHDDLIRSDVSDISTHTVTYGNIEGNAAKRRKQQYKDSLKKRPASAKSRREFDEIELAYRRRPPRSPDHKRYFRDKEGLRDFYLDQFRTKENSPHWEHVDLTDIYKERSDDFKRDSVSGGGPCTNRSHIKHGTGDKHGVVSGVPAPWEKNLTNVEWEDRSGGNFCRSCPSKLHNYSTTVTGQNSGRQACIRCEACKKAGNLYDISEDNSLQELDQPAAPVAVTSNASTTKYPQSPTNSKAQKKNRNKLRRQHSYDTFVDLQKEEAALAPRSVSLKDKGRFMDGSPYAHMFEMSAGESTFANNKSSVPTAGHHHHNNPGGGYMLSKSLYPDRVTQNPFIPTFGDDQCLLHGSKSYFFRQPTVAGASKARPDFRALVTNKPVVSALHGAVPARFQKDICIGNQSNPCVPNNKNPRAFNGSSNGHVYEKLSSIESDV

Voltage-gated inwardly rectifying potassium channel KCNH2, sequence (Q12809 whole entry): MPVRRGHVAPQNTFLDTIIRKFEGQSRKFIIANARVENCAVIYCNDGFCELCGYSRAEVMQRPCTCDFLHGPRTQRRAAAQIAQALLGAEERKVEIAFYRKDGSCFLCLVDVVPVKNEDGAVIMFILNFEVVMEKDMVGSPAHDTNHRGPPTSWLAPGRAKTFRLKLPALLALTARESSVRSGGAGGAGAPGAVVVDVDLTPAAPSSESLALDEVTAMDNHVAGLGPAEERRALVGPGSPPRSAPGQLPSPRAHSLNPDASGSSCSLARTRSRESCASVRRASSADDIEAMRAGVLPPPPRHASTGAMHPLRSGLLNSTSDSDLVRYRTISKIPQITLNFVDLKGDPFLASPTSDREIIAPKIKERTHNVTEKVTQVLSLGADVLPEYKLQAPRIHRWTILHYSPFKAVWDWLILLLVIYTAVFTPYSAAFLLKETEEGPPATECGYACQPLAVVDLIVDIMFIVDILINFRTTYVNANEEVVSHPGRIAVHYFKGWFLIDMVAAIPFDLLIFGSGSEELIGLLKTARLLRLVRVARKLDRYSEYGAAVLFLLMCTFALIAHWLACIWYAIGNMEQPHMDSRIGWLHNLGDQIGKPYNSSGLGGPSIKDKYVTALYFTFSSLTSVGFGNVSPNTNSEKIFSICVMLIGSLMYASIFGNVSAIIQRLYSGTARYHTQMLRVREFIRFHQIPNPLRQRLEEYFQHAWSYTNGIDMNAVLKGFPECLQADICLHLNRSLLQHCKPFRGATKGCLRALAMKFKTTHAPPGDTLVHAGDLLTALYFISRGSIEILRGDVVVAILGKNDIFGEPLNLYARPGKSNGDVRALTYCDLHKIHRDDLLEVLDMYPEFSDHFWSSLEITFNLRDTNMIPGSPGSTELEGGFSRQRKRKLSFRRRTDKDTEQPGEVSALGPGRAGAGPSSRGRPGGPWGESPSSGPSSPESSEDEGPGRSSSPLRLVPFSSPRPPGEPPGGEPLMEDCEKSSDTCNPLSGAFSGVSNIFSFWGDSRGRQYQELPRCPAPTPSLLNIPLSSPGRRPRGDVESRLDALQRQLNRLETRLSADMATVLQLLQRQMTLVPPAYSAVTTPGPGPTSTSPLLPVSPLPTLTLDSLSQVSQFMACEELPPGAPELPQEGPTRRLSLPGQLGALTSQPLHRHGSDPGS
Glutamate receptor ionotropic, NMDA 2B, sequence (Q00960 whole entry): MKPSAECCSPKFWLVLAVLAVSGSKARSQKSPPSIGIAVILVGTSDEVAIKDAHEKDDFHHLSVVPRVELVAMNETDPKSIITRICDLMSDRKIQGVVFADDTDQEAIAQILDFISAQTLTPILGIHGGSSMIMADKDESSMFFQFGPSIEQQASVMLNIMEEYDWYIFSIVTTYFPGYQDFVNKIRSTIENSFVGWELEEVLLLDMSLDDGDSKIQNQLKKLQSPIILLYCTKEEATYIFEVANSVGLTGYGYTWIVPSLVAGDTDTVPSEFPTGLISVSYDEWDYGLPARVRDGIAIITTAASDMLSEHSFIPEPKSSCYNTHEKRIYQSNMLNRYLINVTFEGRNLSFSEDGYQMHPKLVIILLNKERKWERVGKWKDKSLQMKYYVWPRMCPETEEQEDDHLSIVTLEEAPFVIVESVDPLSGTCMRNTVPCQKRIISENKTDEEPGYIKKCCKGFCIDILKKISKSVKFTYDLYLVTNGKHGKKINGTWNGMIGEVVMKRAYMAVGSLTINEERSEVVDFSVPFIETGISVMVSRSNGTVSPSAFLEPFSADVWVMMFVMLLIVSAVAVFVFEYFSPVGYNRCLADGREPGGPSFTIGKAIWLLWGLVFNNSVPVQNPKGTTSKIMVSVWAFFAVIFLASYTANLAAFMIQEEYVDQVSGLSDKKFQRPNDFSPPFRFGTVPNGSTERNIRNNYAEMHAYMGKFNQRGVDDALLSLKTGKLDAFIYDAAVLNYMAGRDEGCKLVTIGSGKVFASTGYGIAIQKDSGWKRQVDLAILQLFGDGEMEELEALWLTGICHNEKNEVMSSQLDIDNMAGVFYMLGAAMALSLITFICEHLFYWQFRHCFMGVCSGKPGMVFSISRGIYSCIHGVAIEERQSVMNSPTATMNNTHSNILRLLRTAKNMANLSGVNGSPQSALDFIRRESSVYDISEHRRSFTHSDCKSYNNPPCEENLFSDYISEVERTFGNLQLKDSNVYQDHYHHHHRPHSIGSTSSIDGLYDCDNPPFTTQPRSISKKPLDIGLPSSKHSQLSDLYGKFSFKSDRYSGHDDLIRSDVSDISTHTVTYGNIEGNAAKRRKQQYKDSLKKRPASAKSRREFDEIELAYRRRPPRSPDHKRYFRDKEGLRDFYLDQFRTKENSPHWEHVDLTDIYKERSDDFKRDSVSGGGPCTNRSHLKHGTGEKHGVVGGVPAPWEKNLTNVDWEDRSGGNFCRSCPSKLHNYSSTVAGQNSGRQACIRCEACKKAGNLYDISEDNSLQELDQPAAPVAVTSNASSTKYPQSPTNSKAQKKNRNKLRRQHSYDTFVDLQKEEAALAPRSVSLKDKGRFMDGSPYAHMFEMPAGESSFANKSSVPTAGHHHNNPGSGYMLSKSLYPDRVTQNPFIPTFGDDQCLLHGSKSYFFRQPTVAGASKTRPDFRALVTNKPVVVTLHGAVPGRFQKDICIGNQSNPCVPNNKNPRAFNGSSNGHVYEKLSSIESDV

Regarding `Cc1cnc(OCc2cn(-c3ccc(F)c(OC(F)F)c3)nn2)nc1`, the Drug metabolism entry in series [1] is on record as “Metabolite_Notdetected”; in series [5] it was “Metabolite_Detected”; in series [8], “Metabolite_Detected”; in series [11] it was “Metabolite_Detected”; in series [12] it was “Metabolite_Notdetected”; in [14], “Metabolite_Detected”. Moreover, the median effective dose (ED50) in series [2] came to 1.7 mg/kg. Besides, the concentration for half-maximal inhibition (IC50) in series [3] is above 10 µM; in series [15], 3.5 nM. Further, the solubility in series [4] and in series [9] was 7.6 µM (≈ 2.67 µg/mL) throughout. In addition, the efflux ratio at 1 h, 5 µM in series [6] is 0.8. Moreover, the hepatic extraction ratio worked out at 0.37 in series [7] and 0.57 in series [10]. The Ki in series [13] was 8.9 nM.
